Experimental data published in patent US20160317560A1, “PARTICLES CONTAINING PHOSPHOLIPIDS OR BIOACTIVE FATTY ACIDS AND USES THEREOF” (THE UNIVERSITY OF NORTH CAROLINA AT CHAPEL HILL, priority 2013, published 2016).
“Also recorded” adds a separate entry of the source.

Key:
[1] = system: bone marrow derived mouse macrophages; assay: Inflammasome activation in bone marrow derived mouse macrophages; format: cell-based; conditions: 1 μm and 80×320 nm particles; soluble form at the same dose; FIG. 19
Source text: FIG. 19. Anti-inflammatory Programming Particles.
Disclosed herein are data showing emergent properties when bioactive fatty acids and phospholipids are delivered via the particles described herein. […] Other phospholipids and bioactive fatty acids could have similar properties when particulated as described herein.

2D2 T cells = assay: Murine DC/T-cell co-culture (mouse dendritic cells and MOG-specific 2D2 T cells), T-cell activation and Treg induction; format: cell-based; conditions: for IFN-γ production by T cells: in the presence of MOG antigen, 50 μM PS (FIG. 11A)
Source text: FIG. 5 depicts a murine model of multiple sclerosis (2D2) for evaluating T-cell activation in murine DC/T-cell co-culture.
FIG. 11A-B depicts programming regulatory T cells with phosphatidylserine Nanoparticles. A) Flow plots of 2D2 T cells after co-stimulation with bone-marrow derived dendritic cells+/−the MOG peptide. […] (*=p<0.05).
Using a co-culture model with mouse dendritic cells and 2D2 T cells specific for the MOG-peptide, Th1-skewed IFN-γ producing T cells were turned into FOXP3+, IL-10 producing T regulatory cells (FIGS. 10 and 11). In the absence of antigen, roughly 20% of all T cells were programmed into anti-inflammatory IL-10 producing FOXP3+ regulatory T cells. This was about a 10-15 fold increase as compared to blank PLGA particles controls. This was about 4-5 fold increase over the soluble PS control at the same dose. This is an exceptionally high % of T regulatory cells in any in vitro or in vivo system.
In the presence of soluble MOG antigen, about 10% of T cells produced IFN-γ in the blank 80×320 nm PLGA control group. […] The presence of antigen led to a 10% IL-10+, FOXP3+ T regulatory population in the presence of blank PLGA particles or soluble PS. PS-PLGA particles induced 2 fold higher levels of this regulatory T cell population, about 20% of all T cells.

[2] = system: primary progressive multiple sclerosis; assay: Murine model of primary progressive multiple sclerosis; format: in vivo; conditions: 14 day study
Source text: FIG. 15 depicts a murine model of primary progressive multiple sclerosis. Reproduced from the Reeves Foundation. FIG. 16 provides data showing PS-loaded particles reduce MS symptoms. The study was 14 days to emphasize the suppression of the neuroinflammation ramp-up during the model.

Structure (SMILES): CCCCCCCC/C=C\CCCCCCCC(=O)O[C@H](COC(=O)CCCCCCCCCCCCCCCCC)COP(=O)(O)OC[C@H](N)C(=O)[O-].[Na+] [PS SOL, Phosphatidylserine]
- inflammasome activation / signaling [1]: exacerbated inflammation
- FOXP3+ T cells (2D2 T cells; FIG. 11A, 50 μM PS): not seen
- IFN-γ production by T cells (2D2 T cells): inhibit IFN-γ production
- IFN-γ production by T cells (2D2 T cells; listed as soluble PS): inhibited to baseline levels; also recorded: can inhibit IFN-γ as well as particulate PS
- IFN-γ production by T cells (2D2 T cells; listed as soluble phosphatidylserine (PS)): dampen IFN-γ production
- IL-10+, FOXP3+ T regulatory population, % of all T cells (2D2 T cells; presence of soluble MOG antigen): 10%
- Maximum Score ([2]; (+/−)): 0.8 (+/−0.2)
- Disease Incidence ([2]; (affected/total animals)): 83% (10/12)
